Laboratory results published in patent publication US20250352611A1, “METHODS FOR TREATING CATARACTS USING POLYPEPTIDES” (REJUKON BIOPHARM INC., priority 2022, published 2025).

How the values were obtained:
[1] = molecular target: T1, γD-crystallin (Homo sapiens, UniProt P07320); experiment: 1H-15N HSQC NMR of γD-crystallin with peptide; format: binding; design: interaction with γD-crystallin from chemical shift difference (CSD): dose or concentration left out as unconfirmed
T1 construct: Wild-type human full-length γD-crystallin gene were inserted into pET14b vectors; made in house; host or cells: E. coli BL21 (DE3)
T1 sequence (P07320 1-174): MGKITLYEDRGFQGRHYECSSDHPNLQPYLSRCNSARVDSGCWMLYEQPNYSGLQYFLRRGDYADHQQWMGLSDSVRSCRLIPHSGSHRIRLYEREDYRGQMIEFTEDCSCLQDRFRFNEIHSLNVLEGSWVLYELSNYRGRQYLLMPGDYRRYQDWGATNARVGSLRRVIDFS
Description: To evaluate whether a protein undergoes small or significant structural changes before and after adding polypeptides, ^1H-^15N HSQC spectroscopy is a useful tool and can be used as a “fingerprint” of the three-dimensional structure. […] Wild-type human full-length γD-crystallin gene were inserted into pET14b vectors. E. coli BL21 (DE3) cells were transformed with these vectors. For protein production, cells were grown at 37° C. to an absorbance at 600 nm of 0.6 and induced by the addition of 0.5 mM IPTG at 37° C. for 4 h. For the N15 labeling of the protein, the transformed E. coli BL21(DE3) cells were cultured and induced in M9 medium with NH4Cl as the only nitrogen source. […] Using final 300 uM human γD-crystallin at 25° C., the two-dimensional [^1H-^15N] heteronuclear single quantum coherence (HSQC) spectra were recorded to determine the domain interactions at the residue-specific level.
Chemical shift difference (CSD) was measured for γD-crystallin alone or with Champ-E(RJK001). […]
HSQC spectrums were acquired and analysis with ccpNMR, amide ^1H-^15N combined chemical shift differences were calculated using the equation Δδ=[(0.125ΔδN)^2+ΔδH^2]^1/2. […]
The N15 labeled protein was mix with the unlabeled peptide with the ratio of 1:0, 1:2. […] Amide ^1H-^15N combined chemical shift differences were calculated using the equation Δδ) [(0.125ΔδN)^2+ΔδH^2]. Intensity changes were calculated by I/I0. […]

[2] = system: crystallin aggregation from cataract patients; experiment: Dissolution of crystallin aggregation in lens lysates from cataract patients; design: species or system human
Description: 30-50 ml lens lysates after phacoemulsification was collected from cataract patients with different disease progressions. Lanosterol was used as a benchmark medicament (see, Zhao, Ling, et al. “Lanosterol reverses protein aggregation in cataracts.” Nature 523. 7562 (2015): 607-611). […] Moreover, the concentration of the polypeptides provided herein (e.g., RJK001) was as less as 1/100 of the concentration of Lanosterol required to achieve the same dissolving effect.
30-50 ml Phacoemulsification of eye lens was collected from cataract patients with different disease progression. Let Phacoemulsification pass the 3KD protein concentration tube, and centrifuge at 4000 g for 20 minutes. centrifuge at 14000 g for 5 minutes after repeating the previous step to get the concentrate. Concentrate phacoemulsification to 200-300 ul every lens. Add 8 ul phacoemulsification concentrate in the following groups: 1, 8 ul crystalline concentrate; 2, 8 ul 1 mM lanosterol; 3, 8 ul 1 mM short peptide RJK001; 4, 8 ul protein solubilization buffer. Use a 20 ul pipette tip to mix them well, then stand still at RT for 20 min.

[3] = system: lens of cataract patients; experiment: Immersion of intact cataract lens, opacity by daily photographs; design: species or system human; conditions: RJK001 0.5 mM in vehicle, 6 days, dark, room temperature
Description: Next, we directly immersed the cataract lens removed during the operation in the buffer solution of the control group and the RJK001 protein solution of the experimental group. During the immersion for up to 6 days, the lens of the patient was photographed and recorded every day. More detailed description of the method is: Collect two intact eye lenses from cataract patients. To each tube was added 400 μL solution of vehicle (0.1% NaN3, 0.3% triton X-100, containing 1:1000 protease inhibitor cocktail) or RJK001 (0.5 mM) in vehicle which covered the lens tissue completely. Lens tissue was incubated in these solutions for 6 days in the dark at room temperature. After sealing the 48-well plate with parafilm to avoid liquid evaporation. Observe the state of the lens under the stereoscope every day and take pictures to record.

Which “1H-15N HSQC spectra of γD-crystallin prior to and after peptide incubation” value ([1]; 300 uM 15N γD-crystallin, molar ratio 1:2, 25° C.) does the source give for “TEPQEESEEEVEEPEERQQTPEVVPDDSGTFYDQTVSNDLE [RJK001, polypeptide with hydrophilic and hydrophobic segment, expressed in E. coli]” here?
The value was “significant chemical shifts”.

And the “interaction with γD-crystallin from chemical shift difference (CSD)” value ([1]; molar ratio γD-crystallin:RJK001 1:2)?
The value was “interacted with the full-length wildtype γD-crystallin protein”.

And the “dissolving crystallin aggregation in lens lysates” value ([2]; lens lysates after phacoemulsification, RT 20 min)?
The value was “could effectively dissolve the crystallin aggregation from cataract patients”.

And the “concentration relative to the concentration of Lanosterol required to achieve the same dissolving effect” value ([2]; lens lysates from cataract patients, Lanosterol as benchmark)?
Its value is 1/100.

And the “opacity of the lens” value [3]?
Its value is “reduced opacity of the lens of cataract patients”.
